Consider 34 molecules from US20090111801A1, “SUBSTITUTED PYRAZINONE DERIVATIVES FOR USE AS A MEDICINE” (Janssen Pharmaceutica N.V., priority 2006, published 2009).

One assay addresses T1, hα2A receptor (Homo sapiens, UniProt P08913).
T1 construct: expressed in transfected cells; host or cells: CHO cells, stably transfected; membrane preparation
T1 sequence (P08913 1-465): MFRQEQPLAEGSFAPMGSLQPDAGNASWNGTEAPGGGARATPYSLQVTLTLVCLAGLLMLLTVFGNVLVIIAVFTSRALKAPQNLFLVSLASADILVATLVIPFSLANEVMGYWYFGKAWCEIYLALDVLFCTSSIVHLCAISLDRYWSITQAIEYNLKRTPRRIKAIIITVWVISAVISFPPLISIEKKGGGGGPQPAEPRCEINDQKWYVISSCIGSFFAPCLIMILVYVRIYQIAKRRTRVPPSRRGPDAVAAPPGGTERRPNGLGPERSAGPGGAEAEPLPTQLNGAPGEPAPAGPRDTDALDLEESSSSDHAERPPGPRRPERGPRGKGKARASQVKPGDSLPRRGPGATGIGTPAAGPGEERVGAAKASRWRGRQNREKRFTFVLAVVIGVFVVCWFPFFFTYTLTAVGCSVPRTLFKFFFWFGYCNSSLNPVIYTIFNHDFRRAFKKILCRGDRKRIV
Nature of the assay: Radioligand binding experiment for α2A-adrenoceptor ([3H]raulwolscine, CHO cell membranes). Particulars: [3H]raulwolscine binding, read-out: h-α2A pIC50 (converted).

The target in a further assay is T2, hα2C receptor (Homo sapiens, UniProt P18825).
T2 construct: expressed in transfected cells; host or cells: CHO cells, stably transfected; membrane preparation
T2 sequence (P18825 1-462): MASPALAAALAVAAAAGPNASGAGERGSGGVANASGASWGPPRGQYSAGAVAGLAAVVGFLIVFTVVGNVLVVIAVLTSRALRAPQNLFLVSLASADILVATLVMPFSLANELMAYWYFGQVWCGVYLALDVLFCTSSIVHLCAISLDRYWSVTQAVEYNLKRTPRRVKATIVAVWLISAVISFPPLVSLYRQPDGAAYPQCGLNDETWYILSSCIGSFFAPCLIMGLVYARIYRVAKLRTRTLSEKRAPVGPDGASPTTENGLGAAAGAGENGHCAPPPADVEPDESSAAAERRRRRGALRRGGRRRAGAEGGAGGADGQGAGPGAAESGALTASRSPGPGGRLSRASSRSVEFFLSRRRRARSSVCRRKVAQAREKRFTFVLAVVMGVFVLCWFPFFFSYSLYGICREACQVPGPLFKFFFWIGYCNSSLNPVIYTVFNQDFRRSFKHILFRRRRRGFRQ
As to the kind of experiment: Radioligand binding experiment for α2C-adrenoceptor ([3H]raulwolscine, CHO cell membranes). Particulars: [3H]raulwolscine binding, read-out: h-α2C pIC50 (converted).

In the next assay the target is T3, 5HT-Transporter (Homo sapiens, UniProt P31645).
T3 construct: Human platelet membranes (Oceanix Biosciences Corporation, Hanover, Md., USA) were thawed; tissue Oceanix Biosciences Corporation, Hanover, Md., USA; host or cells: human platelet membranes
T3 sequence (P31645 whole entry): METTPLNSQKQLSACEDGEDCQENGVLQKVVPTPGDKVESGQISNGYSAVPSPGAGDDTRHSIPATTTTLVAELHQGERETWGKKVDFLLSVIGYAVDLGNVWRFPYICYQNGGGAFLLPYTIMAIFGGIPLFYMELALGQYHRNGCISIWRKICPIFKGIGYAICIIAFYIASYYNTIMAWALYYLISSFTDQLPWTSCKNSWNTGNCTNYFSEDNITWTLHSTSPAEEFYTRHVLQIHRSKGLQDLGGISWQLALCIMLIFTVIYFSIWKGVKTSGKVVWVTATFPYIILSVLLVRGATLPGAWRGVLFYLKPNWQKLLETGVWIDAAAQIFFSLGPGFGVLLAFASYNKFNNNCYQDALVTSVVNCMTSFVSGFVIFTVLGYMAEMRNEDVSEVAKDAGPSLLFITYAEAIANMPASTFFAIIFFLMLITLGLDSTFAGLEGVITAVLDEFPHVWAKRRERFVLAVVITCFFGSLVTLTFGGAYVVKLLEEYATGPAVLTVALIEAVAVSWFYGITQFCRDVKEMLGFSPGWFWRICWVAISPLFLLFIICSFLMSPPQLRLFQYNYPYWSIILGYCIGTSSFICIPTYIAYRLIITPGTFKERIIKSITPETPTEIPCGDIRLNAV
Nature of the assay: Binding experiment for the 5HT-transporter ([3H]paroxetine, human platelet membranes). The settings on record: [3H]paroxetine 0.5 nM, read-out: h-5HTT pIC50 (converted). The method, boiled down: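 Competition binding of [3H]paroxetine to human platelet membranes in Tris-HCl 50 mM, 120 mM NaCl, 5 mM KCl, with filtration and scintillation counting.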

As for `CC(=O)c1ccc(-n2ccnc(NC3CCN(C/C(C)=C/c4ccccc4)CC3)c2=O)cc1` [5-7], the figures for the IC50 at hα2A receptor, on hα2C receptor and at 5HT-Transporter were 25.1 nM, 10 nM and 631 nM, respectively.
On to `C/C(=C\c1ccccc1)CN1CCC(Nc2nccn(CCCN3C(=O)c4ccccc4C3=O)c2=O)CC1` [2-50], for which the IC50 on hα2A receptor was 31.6 nM; on hα2C receptor, 1 nM; on 5HT-Transporter it was 126 nM.
`CCc1ccc(-n2ccnc(NC3CCN(C/C(C)=C/c4ccccc4)CC3)c2=O)cc1` [5-4]: the IC50 on hα2A receptor is 39.8 nM; on hα2C receptor it was 12.6 nM; on 5HT-Transporter, 398 nM.
Consider `C/C(=C\c1ccccc1)CN1CCC(Nc2nccn(CC#CCN3C(=O)c4ccccc4C3=O)c2=O)CC1` [2-53], for which the IC50 on hα2A receptor was 200 nM; at hα2C receptor, 3.16 nM; on 5HT-Transporter it was 63.1 nM.
Regarding `C/C(=C\c1ccccc1)CN1CCC(Nc2nccn(CC(=O)NCc3ccccc3)c2=O)CC1` [1-48], the IC50 on hα2A receptor was 126 nM; at hα2C receptor, 5.01 nM; on 5HT-Transporter it was 2000 nM.
In the same order, the values of `C/C(=C\c1ccccc1)CN1CCC(Nc2nccn(-c3ccc(C(=O)N(CCN(C)C)Cc4ccccc4)cc3)c2=O)CC1` [1-112] are 39.8 nM, 3.16 nM and 200 nM.
On the same counts, the results for `C/C(=C\c1ccccc1)CN1CCC(Nc2nccn(CC(=O)N(CCO)Cc3ccccc3)c2=O)CC1` [1-67] are 100 nM, 3.16 nM and 1000 nM.
On the same counts, the results for `COC(=O)Cn1ccnc(NC2CCN(C/C(C)=C/c3ccccc3)CC2)c1=O` [3-7] are 100 nM, 10 nM and 7940 nM.
Turning to `C/C(=C\c1ccccc1)CN1CCC(Nc2nccn(CC(=O)N(C)CCc3ccccc3)c2=O)CC1` [1-61], the IC50 is 100 nM on hα2A receptor, 6.31 nM on hα2C receptor and 1260 nM at 5HT-Transporter.
In the same order, the values of `C/C(=C\c1ccccc1)CN1CCC(Nc2nccn(CCN3C(=O)c4ccccc4C3=O)c2=O)CC1` [2-49] are 158 nM, 15.8 nM and 1000 nM.
As for `C/C(=C\c1ccccc1)CN1CCC(Nc2nccn(CC(=O)NCC3CCCO3)c2=O)CC1` (stereo not drawn) [1-144], the IC50 is 158 nM on hα2A receptor, 6.31 nM on hα2C receptor and 3160 nM on 5HT-Transporter.
On the same counts, the results for `C/C(=C\c1ccccc1)CN1CCC(Nc2nccn(Cc3ccc(CNC(=O)NCCc4ccccc4)cc3)c2=O)CC1` [1-125] are 158 nM, 63.1 nM and 501 nM.
On the same counts, the results for `C/C(=C\c1ccccc1)CN1CCC(Nc2nccn(-c3cccc(N4CCN(Cc5ccccc5)CC4)c3)c2=O)CC1` [2-31] are 31.6 nM, 6.31 nM and 398 nM.
In the same order, the values of `C/C(=C\c1ccccc1)CN1CCC(Nc2nccn(CCCN)c2=O)CC1` [1-1] are 63.1 nM, 6.31 nM and 2000 nM.
Regarding `C/C(=C\c1ccccc1)CN1CCC(Nc2nccn(CCCN(Cc3ccccc3)C(=O)c3ccccc3)c2=O)CC1` [1-87], the IC50 was 200 nM at hα2A receptor, 12.6 nM at hα2C receptor and 1580 nM at 5HT-Transporter.
As to `C/C(=C\c1ccccc1)CN1CCC(Nc2nccn(CC(=O)N(CCN3CCCC3C)Cc3ccc(F)cc3)c2=O)CC1` (stereo not drawn) [1-138], the results for the IC50 at hα2A receptor, at hα2C receptor and on 5HT-Transporter were 7.94 nM, 0.794 nM and 1260 nM, respectively.
With `CCCNC(=O)NCc1ccc(Cn2ccnc(NC3CCN(C/C(C)=C/c4ccccc4)CC3)c2=O)cc1` [1-115], the IC50 on hα2A receptor was 251 nM; on hα2C receptor it was 79.4 nM; on 5HT-Transporter, 794 nM.
Consider `C/C(=C\c1ccccc1)CN1CCC(Nc2nccn(CC(=O)N(CCCN3CCCC3=O)Cc3ccc(F)cc3)c2=O)CC1` [1-139], for which the IC50 is 200 nM at hα2A receptor, 3.16 nM on hα2C receptor and 2510 nM on 5HT-Transporter.
Regarding `C/C(=C\c1ccccc1)CN1CCN(c2nccn(CC(=O)c3ccc(-c4ccccc4)cc3)c2=O)CC1` [12-6], the results for the IC50 at hα2A receptor, on hα2C receptor and at 5HT-Transporter were 398 nM, 251 nM and 2000 nM, respectively.
In the same order, the values of `C/C(=C\c1ccccc1)CN1CCC(Nc2nccn(CC(=O)Nc3ccc(N4CCOCC4)cc3)c2=O)CC1` [1-45] are 126 nM, 39.8 nM and 2000 nM.
With `C/C(=C\c1ccccc1)CN1CCC(Nc2nccn(Cc3ccc(C#N)cc3)c2=O)CC1` [5-20], the IC50 on hα2A receptor is 501 nM; at hα2C receptor, 100 nM; at 5HT-Transporter it was 5010 nM.
For the molecule `CCCNCc1cccc(-n2ccnc(NC3CCN(C/C(C)=C/c4ccccc4)CC3)c2=O)c1` [1-11], the IC50 at hα2A receptor was 3.16 nM; on hα2C receptor, 1 nM; at 5HT-Transporter it was 631 nM.
In the same order, the values of `C/C(=C\c1ccccc1)CN1CCC(Nc2nccn(-c3ccc(C#N)cc3)c2=O)CC1` [5-3] are 50.1 nM, 10 nM and 1000 nM.
Consider `C/C(=C\c1ccccc1)CN1CCC(Nc2nccn(CC#CCN3C(=O)c4ccccc4C3=O)c2=O)CC1` [2-54], for which the IC50 at hα2A receptor is 126 nM; on hα2C receptor it was 6.31 nM; on 5HT-Transporter, 50.1 nM.
In the same order, the values of `CCN(CC)c1ccc(C(=O)Cn2ccnc(NC3CCN(C/C(C)=C/c4ccccc4)CC3)c2=O)cc1` [1-18] are 39.8 nM, 12.6 nM and 1000 nM.
On the same counts, the results for `COc1ccc(-c2nnc(Cn3ccnc(N4CCN(C/C(C)=C/c5ccccc5)CC4)c3=O)o2)cc1` [13-4] are 63.1 nM, 63.1 nM and 398 nM.
On the same counts, the results for `COC(=O)CCCCn1ccnc(NC2CCN(C/C(C)=C/c3ccccc3)CC2)c1=O` [3-8] are 79.4 nM, 15.8 nM and 794 nM.
Turning to `C/C(=C\c1ccccc1)CN1CCC(Nc2nccn(Cc3ccc(CNS(=O)(=O)c4ccc(F)cc4)cc3)c2=O)CC1` [1-162], the IC50 on hα2A receptor is 100 nM; on hα2C receptor, 20 nM; on 5HT-Transporter, 316 nM.
In the same order, the values of `C/C(=C\c1ccccc1)CN1CCC(Nc2nccn(Cc3ccco3)c2=O)CC1` [6-2] are 126 nM, 25.1 nM and 1260 nM.
In the case of `O=c1c(NC2CCN(C/C=C/c3ccccc3)CC2)nccn1CCN1CCCCC1` [16-6], the IC50 is 794 nM at hα2A receptor, 63.1 nM at hα2C receptor and > 10000 nM at 5HT-Transporter.
Regarding `CNCc1ccc(Cn2ccnc(NC3CCN(C/C(C)=C/c4ccccc4)CC3)c2=O)cc1` [1-9], the results for the IC50 on hα2A receptor, on hα2C receptor and on 5HT-Transporter were 31.6 nM, 3.98 nM and 1580 nM, respectively.
As to `C/C(=C\c1ccccc1)CN1CCC(Nc2nccn(Cc3ccc(-c4ccccc4)cc3)c2=O)CC1` [5-32], the IC50 was 316 nM on hα2A receptor, 126 nM on hα2C receptor and 316 nM on 5HT-Transporter.
For `C/C(=C\c1ccccc1)CN1CCC(Nc2nccn(-c3cccc(NCc4ccccc4)c3)c2=O)CC1` [1-49], the IC50 is 25.1 nM at hα2A receptor, 3.98 nM on hα2C receptor and 251 nM on 5HT-Transporter.
On to `CCCCCn1ccnc(NC2CCN(C/C(C)=C/c3ccccc3)CC2)c1=O` [7-5], for which the results for the IC50 at hα2A receptor, on hα2C receptor and on 5HT-Transporter were 100 nM, 31.6 nM and 251 nM, respectively.
